From patent publication US5039684A, “Tetrazole amide derivatives of heterocyclic alkenyl acid and their use as antiallergic substances” (Valeas S. p. A., priority 1989, dated 1991)
Like-named read-outs stand apart in the source and are kept apart here.

Experiments:
[1] = Acute toxicity in the mouse, oral administration; type: in vivo; conditions: mouse, in vivo, po, 1000 mg/kg, oral, 1000 mg/kg/os; read-out: mortality (%EAD)
Procedure: (§1) Acute toxicity was evaluated in the mouse by administering the compounds orally at scalar doses to a maximum of 1000 mg/kg to evaluate the 50% lethal dose (LD50). The compounds were administered in carboxymethylcellulose (0.5%) in a volume of […] to male mice (Swiss stock) of average weight 20 g.

mouse = assay: Acute toxicity in the mouse, oral administration; type: in vivo
Procedure: as §1

[2] = system: passive cutaneous anaphylaxis; conditions: oral, cited from earlier work
[3] = system: passive cutaneous anaphylaxis; assay: PCA test on the rat, intravenous administration just before challenge with antigen; type: in vivo, rat (male Sprague Dawley); conditions: for ED50: read-out: ED50 (conf. lim) P = 0.05
Procedure: (§2) The serum, obtained from rats actively sensitized with ovalbumin (antigen) and suitably diluted, was injected intradermically into the shaven back of male Sprague Dawley rats (2 wheals per rat).
(§3) The rats were treated intravenously after 24 hours with a solution of ovalbumin and Evans blue. Thirty minutes later they were killed and the diameter and intensity of the blue ring formed at the site of the intradermic injection were measured.
(§4) For each treated group (5 per group) the % inhibition was then calculated with respect to the control group.
The pharmacological screening was effected by administering the compounds of the present invention intravenously and orally.
(§5) For intravenous administration (2 ml/kg), those compounds in which R1 =H (see formula I) were dissolved in an aqueous 1% NaHCO3 solution whereas for oral administration (4 ml/Kg) they were either suspended in 0.5% carboxymethylcellulose or dissolved in an aqueous 3% NaHCO3 solution.

[4] = system: passive cutaneous anaphylaxis; assay: PCA test on the rat, oral administration before challenge with antigen; type: in vivo, rat (male Sprague Dawley); conditions: for inhibition in vivo at 0.3 mg/kg / inhibition in vivo at 1 mg/kg / inhibition in vivo at 3 mg/kg / ED50 / inhibition in vivo at 10 mg/kg / inhibition in vivo at 30 mg/kg: Rattus norvegicus, po; for inhibition in vivo at 3 mg/kg / inhibition in vivo at 10 mg/kg / inhibition in vivo at 30 mg/kg: read-out: inhibition (%); for ED50: Table 2, oral administration, read-out: ED50 (conf. lim) P = 0.05; for oral bioavailability (in words): from ED50 os / ED50 iv comparison; for ED50 OS/ED50 iv: oral 5 minutes before challenge / i.v. immediately before challenge
Procedure: The serum, obtained from rats actively sensitized with ovalbumin (antigen) and suitably diluted, was injected intradermically into the shaven back of male Sprague Dawley rats (2 wheals per rat). The rats were treated intravenously after 24 hours with a solution of ovalbumin and Evans blue. Thirty minutes later they were killed and the diameter and intensity of the blue ring formed at the site of the intradermic injection were measured. […] The pharmacological screening was effected by administering the compounds of the present invention intravenously and orally. For intravenous administration (2 ml/kg), those compounds in which R1 =H (see formula I) were dissolved in an aqueous 1% NaHCO3 solution whereas for oral administration (4 ml/Kg) they were either suspended in 0.5% carboxymethylcellulose or dissolved in an aqueous 3% NaHCO3 solution.

[5] = system: passive cutaneous anaphylaxis; assay: PCA test on the rat, time response curve after oral administration; type: in vivo, rat (male Sprague Dawley); conditions: for inhibition in vivo at 1 mg/kg / inhibition in vivo at 100 mg/kg / inhibition in vivo at 30 mg/kg / inhibition in vivo at 3 mg/kg: Rattus norvegicus; for inhibition in vivo at 1 mg/kg: 1 mg/kg/os; for inhibition in vivo at 100 mg/kg: 100 mg/kg/os; for inhibition in vivo at 30 mg/kg: read-out: inhibition %; for inhibition in vivo at 3 mg/kg: 3 mg/kg/os
Procedure: as §2, §3, §4, §5

[6] = in vivo; cited from earlier work
[7] = Rattus norvegicus, iv, immediately before challenge
[8] = 3 mg/kg, 5 minutes before challenge
[9] = 5 min, 5 minutes before challenge
[10] = 5 min, oral, 5 minutes before challenge
[11] = 0.25 h, oral, 15 minutes before challenge
[12] = 0.5 h, oral, 30 minutes before challenge
[13] = 1 h, oral, 60 minutes before challenge
[14] = 2 h, oral, 120 minutes before challenge
[15] = Rattus norvegicus, iv, read-out: inhibition (%)
[16] = Rattus norvegicus, iv, 1 mg/kg, immediately before challenge, read-out: inhibition (%)
[17] = Rattus norvegicus, iv, 3 mg/kg, immediately before challenge
[18] = 10 mg/kg, 5 minutes before challenge

Row | SMILES | mortality [1] [%] | No. (dead) (mouse; oral, 1000 mg/kg/os, 8 treated) | ED50 [3, 7] [mg/kg] | inhibition in vivo at 0.3 mg/kg ([4]; 5 minutes before challenge) [%] | inhibition in vivo at 1 mg/kg ([4]; 5 minutes before challenge) [%] | inhibition in vivo at 3 mg/kg [4, 8] [%] | ED50 [4, 9] [mg/kg] | ED50 OS/ED50 iv [4] | inhibition in vivo at 1 mg/kg [5, 10] [%] | inhibition in vivo at 1 mg/kg [5, 11] [%] | inhibition in vivo at 1 mg/kg [5, 12] [%] | inhibition in vivo at 1 mg/kg [5, 13] [%] | inhibition in vivo at 1 mg/kg [5, 14] [%] | No. (dead) (mouse; mouse, in vivo, po, 1000 mg/kg) | inhibition in vivo at 1 mg/kg [3, 16] [%] | inhibition in vivo at 3 mg/kg [3, 17] [%] | inhibition in vivo at 10 mg/kg [3, 7] [%] | also measured
1 | Cc1cccc(C(=O)Nc2nn[nH]n2)n1 [TA 57-07, 6-methyl-N-(1H-tetrazol-5-yl)-2-pyridinecarboxyamide, reference compound] | 50 | 4 | 0.059 | 12.7 | 57.7 | 82.5 | 0.93 | 15.76 | 86.8 | 43.7 | 37.6 | 17.3 | 4.1 |  |  |  |  | ED50 ([2]; 5 minutes before challenge, Tsuzurahara et al.): 0.9 (0.6-1.6) mg/kg/os; oral bioavailability (in words) [4]: less bioavailable when administered orally than the compounds of the present invention
2 | COc1ccc(/C=C/C(=O)Nc2ccccc2C(=O)O)cc1OC [Tranilast, N-(3', 4'-dimethoxycinnamoyl) anthranylic acid, reference compound] | 87.5 | 7 |  |  |  |  |  |  |  |  |  |  |  |  |  |  |  | ED50 ([2]; 2 hours before challenge, Koda et al.): 150 (88, 3-255) mg/kg/os; ED50 ([4]; 0.25 h, 15 minutes before challenge): 115 mg/kg; oral bioavailability (in words) [4]: less bioavailable when administered orally than the compounds of the present invention; activity compared with Tranilast / compounds of the invention (in words) ([4]; oral): less active by at least one order of magnitude; inhibition in vivo at 100 mg/kg [5, 10]: 17.9%; inhibition in vivo at 100 mg/kg [5, 11]: 37.4%; inhibition in vivo at 100 mg/kg [5, 12]: 20.5%; inhibition in vivo at 100 mg/kg [5, 13]: 20.5%; inhibition in vivo at 100 mg/kg [5, 14]: 13.7%; time of administration before challenge giving the peak (maximum) effect ([5]; oral): 15 min
3 | O=C(/C=C/c1ccnc2ccccc12)Nc1nn[nH]n1 [VAL 47-067, N-1H-TETRAZOL-5-YL-[3-(4-QUINOLYL)] […] ISOMER] | 12.5 | 1 |  |  |  |  |  |  |  |  |  |  |  |  |  |  |  | ED50 ([3]; Rattus norvegicus, iv): 0.35 mg/kg; inhibition in vivo at 0.1 mg/kg [3, 15]: 1.1%; inhibition in vivo at 0.3 mg/kg [3, 15]: 53.6%; inhibition in vivo at 1 mg/kg [3, 15]: 81.8%; inhibition in vivo at 3 mg/kg [4]: 8.3%; inhibition in vivo at 10 mg/kg [4]: 0%; inhibition in vivo at 30 mg/kg [4]: 16.7%; inhibition in vivo at 30 mg/kg ([5]; po, 5 min): 50.5%; inhibition in vivo at 30 mg/kg ([5]; po, 0.25 h): 29.3%; inhibition in vivo at 30 mg/kg ([5]; po, 0.5 h): 13.3%; inhibition in vivo at 30 mg/kg ([5]; po, 1 h): 0%; inhibition in vivo at 30 mg/kg ([5]; po, 2 h): 0%
4 | Cc1ccc(/C=C\C(=O)Nc2nn[nH]n2)o1 [VAL 47-073cis, N-1H-tetrazol-5-yl-[3-[5-methyl-(2-furyl)]]-acrylamide cis isomer] | 12.5 |  | 5.76 | 25.1 | 42.6 | 67.2 | 1.26 | 0.22 |  |  |  |  |  | 1 | 6.6 | 25 | 69.4 | inhibition in vivo at 3 mg/kg [5, 10]: 50.8%; inhibition in vivo at 3 mg/kg [5, 11]: 66.4%; inhibition in vivo at 3 mg/kg [5, 12]: 17.3%; inhibition in vivo at 3 mg/kg [5, 13]: 5.8%; inhibition in vivo at 3 mg/kg [5, 14]: 0%
5 | Cc1ccc(/C=C\C(=O)Nc2nn[nH]n2)s1 [VAL 47-005cis, N-1H-tetrazol-5-yl-[3-[5-methyl-(2-thienyl)]]acrylamide cis isomer] | 0 |  | 0.89 | 23.6 | 51.1 | 94.5 | 0.78 | 0.88 | 52.4 | 27.5 | 20.6 | 19.6 | 2.1 | 0 | 54.6 | 82.9 |  | toxicity (in words) (mouse; oral, mouse): do not determine any toxic effect; inhibition in vivo at 0.3 mg/kg ([3]; Rattus norvegicus, iv, 0.3 mg/kg, immediately before challenge, read-out: inhibition (%)): 18%; activity greater than its trans isomer (VAL 47-005) ([3]; i.v., ratio of ED50): about 3 times
6 | O=C([O-])c1cc(=O)c2c(OCC(O)COc3cccc4oc(C(=O)[O-])cc(=O)c34)cccc2o1.[Na+].[Na+] [DSCG, Disodium chromoglycate, reference compound] |  |  |  |  |  |  |  |  |  |  |  |  |  |  |  |  |  | absorption at the gastro-enteric level [6]: not being absorbed at the gastro-enteric level; inhibition (%) ([3]; i.v., 0.1 mg/kg, immediately before challenge): 28.1%; inhibition (%) ([3]; i.v., 0.3 mg/kg, immediately before challenge): 33.6%; inhibition (%) ([3]; i.v., 1 mg/kg, immediately before challenge): 70.0%; inhibition (%) ([3]; i.v., 3 mg/kg, immediately before challenge): 100%; ED50 (conf. lim) P = 0.05 ([3]; i.v., immediately before challenge): 0.52 mg/kg/iv; ED50 (conf. lim) P = 0.05 ([3]; i.v., immediately before challenge, listed as D.S.C.G.): 0.52 (0.47-0.83) mg/kg/iv
7 | O=C(/C=C/c1ccco1)Nc1nn[nH]n1 [VAL 47-010, N-1H-tetrazol-5-yl-[3-(2-furyl)]-acrylamide trans isomer] | 25 |  | 3.13 |  |  | 9.6 | 12.4 | 3.95 |  |  |  |  |  | 2 | 29 | 40.2 | 84.1 | inhibition in vivo at 30 mg/kg ([3]; Rattus norvegicus, iv, 30 mg/kg, immediately before challenge): 95.3%; inhibition in vivo at 10 mg/kg [4, 18]: 35.9%; inhibition in vivo at 30 mg/kg ([4]; 30 mg/kg, 5 minutes before challenge): 80.9%; inhibition in vivo at 30 mg/kg ([5]; 5 min, oral, 30 mg/kg/os, 5 minutes before challenge): 51.4%; inhibition in vivo at 30 mg/kg ([5]; 0.25 h, oral, 30 mg/kg/os, 15 minutes before challenge): 44.8%; inhibition in vivo at 30 mg/kg ([5]; 0.5 h, oral, 30 mg/kg/os, 30 minutes before challenge): 21.9%; inhibition in vivo at 30 mg/kg ([5]; 1 h, oral, 30 mg/kg/os, 60 minutes before challenge): 6.6%; inhibition in vivo at 30 mg/kg ([5]; 2 h, oral, 30 mg/kg/os, 120 minutes before challenge): 18.6%
8 | Cc1ccc(/C=C/C(=O)Nc2nn[nH]n2)o1 [VAL 47-073, N-1H-tetrazol-5-yl-[3-[5-methyl-(2-furyl)]]-acrylamide trans isomer] | 0 |  | 3.13 | 22 | 44 | 87.5 | 0.92 | 0.29 | 52.6 | 7.8 | 19.8 | 0 | 0 | 0 | 3.4 | 50.7 | 95.1 | toxicity (in words) (mouse; oral, mouse): do not determine any toxic effect; inhibition in vivo at 10 mg/kg [4, 18]: 89.3%
